According to patent US20080311138A1 (priority 2004, published 2008):
No end group written: not given here.

Columns and labels:
[1] = tested on: tetanus toxin; parameters: species or system mice (C57/BL6); conditions: mouse, in vivo
[2] = circulating GLP-1; inactivated by N-terminal cleavage by DPP-IV; cited from earlier work
[3] = tested on: tetanus toxoid (TT); parameters: species or system mice (C57/BL6); conditions: mouse, in vivo
[4] = tested on: TT; parameters: species or system mice (C57/BL6); conditions: mouse, in vivo
[5] = tested on: VIP; conditions: in man; cited from earlier work

Row | Substance | paralysis after tetanus toxin challenge [1] | survivors after tetanus toxin challenge [1] | half life [2] | anti-TT serum IgA response (GMT) [3] | range of anti-TT IgG titer [4] | VIP agonist activity [5]
1 | GLP-1 (HDRHAGTTSDVSSYGAAKAWVKGRG; listed as Homo sapiens) | no sign of paralysis | 8/8 | several minutes | 959 | 16,384-131,072 | 
2 | VIP 2-28: Gastrointestinal peptide, residues 2-28 of Vasoactive Intestinal Peptide (SDAVFTDNYTRLRKQMAVKKYLNSILN; ends and bridges not checked; UniProt P01282 126-152, looked up, fragment) |  |  |  |  |  | full VIP agonist
